Reference: US20250276008A1, “USE OF LITHIUM-CONTAINING COMPOUNDS IN TREATMENT OF TUMORS” (Institute of Basic Medical Sciences Chinese Academy of …, priority 2023, published 2025)

How the values were obtained:
CD8^+ T cells [1] = assay: Cytosolic Ca2+ / lysosomal Ca2+ release in CD8+ T cells; type: cell-based, mouse
Description: Next, we investigated the molecular mechanism by which LC activated TFEB in CD8^+ T cells. It has been reported (Nat Cell Biol. 2015 March;17(3):288-99) that in addition to being able to degrade exogenous or endogenous biomacromolecules, lysosomes, like endoplasmic reticulum and mitochondria, are also storage sites for Ca^2+ and can initiate the transduction of calcium-related downstream signals.
(§1) In order to better track the flow of H^+, ^2D (deuterium)-acetic acid (DAC) or ^2D-sulfuric acid (D2SO4) was added to the culture medium of CD8^+ T cells. […] The K-loop of V-ATPase is located in the hydrophobic lipid bilayer and is essential for the pumping of cytosolic H^+ into the lysosomal lumen. Li^+ has been reported to bind to the K-loop of V-ATPase in Enterococcus hirde and induce deprotonation of the Glul39 residue (J. Am. Chem. Soc. 2011.133. 2860-2863).

mouse melanoma B16 cells = settings: 75 mg/kg by gavage
Method: Lithium carbonate is an inorganic compound with the chemical formula Li2CO3 and a molecular weight of 73.89. Lithium carbonate was prepared as follows: • 1) 1.000 g of lithium carbonate (Sigma, WXBC5202V) was weighed and placed in a beaker containing 50 mL of double-distilled water, and the volume was brought to 100 mL with double-distilled water. • 2) The mixture was mixed well in an ice water bath for 2 hours to fully dissolve the lithium carbonate. • 3) The solution was aliquoted into 50 mL centrifuge tubes and stored at 4° C.
(§2) Model establishment: Cultured mouse melanoma B16 cells were resuspended in PBS buffer and inoculated subcutaneously at 1×10^5 cells/mouse into the right back of the mouse, with an injection volume of 50 μL. The needle of a 1 ml syringe was inserted from the right thigh of the mouse, penetrating under the skin to the back, to inject 50 μL of tumor cell suspension subcutaneously to the mouse to form a translucent lump of skin. Care should be taken not to puncture the skin of the mouse. The needle was quickly withdrawn after the injection, so as to avoid any leaking of tumor cells when withdrawing the needle, which would result in tumorigenesis of multiple subcutaneous tumors. Tumor cells were inoculated as soon as possible to maintain cell viability.

[2] = during administration of lithium carbonate 75 mg/kg by gavage
Method: (§3) The proportion of tumor-infiltrating human CD8^+ T cells was analyzed on Day 18.

human A375 tumor cells = settings: humanized NSG mice
Method: Model establishment: NOD.Cg-PrkdcIl2rg<tm1Wjl>SzJ (NSG) mice were irradiated with X-ray irradiation (2 Gy). 10^7 PBMCs from healthy volunteers were adopted into NSG mice through the tail vein within 24 hours. After 24 hours, human A375 tumor cells were digested and counted, 4×10^5 of which were inoculated subcutaneously into the right back of NSG mice, and tumorigenesis generally occurred in about seven days.
as §3

[3] = patients with bipolar disorder; J Clin Psychopharmacol. 2017; cited from earlier work
PKCθ = test system: PKCθ
Description: PKCθ is a new member of the PKC family, which is activated by DAG and is widely expressed in T lymphocytes. […] This enzyme has PLC activity and catalyzes the production of DAG from lysosomal phospholipids.

lysosomal V-ATPase = assay: Lysosomal pH, Atp6v0c, H+ (deuterium) flow and Li+ accumulation in CD8+ T cells; type: cell-based, mouse
Method: as §1

OVA-B16 melanoma cells = test system: OVA-B16 melanoma cells
Method: In order to further verify the anti-tumor immune response specific for CD8^+ T cells induced by LC, on the basis of the established tumor-bearing mice above (Example 7), 1×10^6 CD45.1 OT-1 T tumor-specific CD8^+ T cells were sorted and adoptively transferred through the tail vein to wild-type C57 mice 24 hours before the subcutaneous tumor inoculation. After 24 hours, 1×10^5 OVA-B16 melanoma cells were subcutaneously inoculated into the right back of the mice.

MCT1 = assay: Localization of MCT1 to mitochondria (Western blot of isolated T cell mitochondria); type: cell-based, mouse; settings: Western blot of isolated T cell mitochondria
Description: The inventor further explored the molecular mechanism by which LC led to the shunting of lactic acid to mitochondria. Entry of lactic acid into mitochondria requires the localization of MCT1 to the inner mitochondrial membrane IMM (Redox Biol. 2020 August;35:101454). […] MCT1 is generally recognized as a secreted protein with an endoplasmic reticulum-targeting sequence that enters the endoplasmic reticulum and localizes to the plasma membrane. We hypothesized that LC could induce MCT1 variants with mitochondrial targeting sequences (MTSs). However, no MCT1 variant was found in LC-treated T cells by sequencing analysis, and only one transcript of MCT1 was found after alignment analysis on NCBI. A MTS was found at the N-terminus of MCT-1protein by protein sequence analysis, which was present downstream of the endoplasmic reticulum targeting sequence, forming a double-peak chimeric sequence. This double-peak sequence may direct MCT-1 to target the endoplasmic reticulum or mitochondria, and may be regulated by serine/threonine phosphorylation of PKA or PKC (Avadhani, N. G. 2011. FEBS J 278, 4218-4229).

MC38 colon cancer [4] = test system: MC38 colon cancer
Method: as §2
(§4) The present inventor further established MC38 colon cancer and 4T1 breast cancer tumor-bearing mouse models.

4T1 breast cancer [5] = test system: 4T1 breast cancer
Method: as §2, §4

CD8^+ T cells [6] = test system: CD8^+ T cells
Description: The lactic acid that enters the mitochondria is further converted into pyruvic acid with the participation of lactate dehydrogenase to enter the TCA cycle for oxidative metabolism. LDHa and LDHb are two major lactate dehydrogenase genes that encode LDHa (also known as M subunit) and LDHb (H subunit). The five LDH isozymes from LDH1 to LDH5 consist of M and H subunits, and are 4H, 3H1M, 2H2M, 1H3M and 4M, respectively.
Furthermore, this study analyzed the molecular mechanism bu which LC promotes the localization and expression of LDHb in mitochondria. […] TFEB is a major regulator of lysosomal functions. […] In addition, Tfeb^fl/fl Lck^cre mice were constructed in this study, and CD8^+ T cells were isolated from the spleen of mice to repeat the above experiments.

MC38 colon cancer [7] = settings: MC38 tumor-bearing mouse model
Description: (§5) The present inventors further established MC38 colon cancer and 4T1 breast cancer tumor-bearing mouse models.

4T1 breast cancer [8] = settings: 4T1 tumor-bearing mouse model
Description: as §5

CD8^+ T cells [9] = test system: CD8^+ T cells; remark: listed apart in the source

O=C([O-])[O-].[Li+].[Li+] [LC, lithium carbonate]
expression of Mcoln2 (CD8^+ T cells [1]): increased | cytosolic Ca^2+ concentrations (CD8^+ T cells [1]; results not shown): increased | growth of B16 tumors (mouse melanoma B16 cells; 5 doses from Day 7): effectively inhibit | survival of mice (mouse melanoma B16 cells; B16): prolong | number of tumor-infiltrating CD8^+ T cells (mouse melanoma B16 cells; B16, 5 doses from Day 7, Day 18): increase | expression of the effectors IFN-γ and CD107a (mouse melanoma B16 cells; B16, Day 18): increase | blood lithium concentration of mice (monitored and maintained) [2]: 1 mM | tumor growth in mice (human A375 tumor cells): inhibited | infiltration of human CD8^+ T cells (human A375 tumor cells; LC 75 mg/kg gavage, Day 18): significantly increased | lactic acid levels in the cerebrospinal fluid [3]: significantly down-regulate | DAG levels in CD8^+ T cells (PKCθ): increased | expression of acid sphingomyelinase (ASM) in lysosomes (PKCθ): increased | localization of PKCθ to lysosomes (PKCθ): could induce | PKCθ activation (PKCθ; ASM expression interfered with shASM): could not induce | expression of lysosome-related gene Atp6v0c (lysosomal V-ATPase): significantly decreased | lactylation of the Atp6v0c gene (ChIP-seq) (lysosomal V-ATPase): disappeared | entry of deuterium ions into the lysosomal lumen (lysosomal V-ATPase; 2D-acetic acid or 2D-sulfuric acid added to culture medium): significantly inhibited | lysosomal pH (lysosomal V-ATPase; LA-treated cells, increased from 4.4 within 30 minutes): 5.9 | tumor growth in mice (OVA-B16 melanoma cells; OVA-B16): inhibit | expression of the effectors IFN-γ and CD107a (OVA-B16 melanoma cells; OVA-B16, Day 18): increase | number of tumor-infiltrating CD8^+ T cells (OVA-B16 melanoma cells; OVA-B16, OT-1 adoptive transfer model, LC 75 mg/kg gavage, Day 18): increase | efficacy of T cell adoptive therapy (OVA-B16 melanoma cells; OVA-B16 melanoma tumor-bearing mice): enhances | expression / localization of MCT1 in mitochondria (MCT1): significantly increased | expression of the effectors IFN-γ and CD107a (MC38 colon cancer [4]; MC38): increase | survival of mice (MC38 colon cancer [4]; MC38): prolong | number of tumor-infiltrating CD8^+ T cells (MC38 colon cancer [4]; MC38, treated as B16 model): increase | growth of MC38 colon cancer (MC38 colon cancer [4]; mouse, in vivo): effectively inhibit | expression of the effectors IFN-γ and CD107a (4T1 breast cancer [5]; 4T1): increase | survival of mice (4T1 breast cancer [5]; 4T1): prolong | number of tumor-infiltrating CD8^+ T cells (4T1 breast cancer [5]; 4T1, treated as B16 model): increase | growth of 4T1 breast cancer (4T1 breast cancer [5]; mouse, in vivo): effectively inhibit | expression of LDHa (CD8^+ T cells [6]): up-regulated | expression of LDHb (CD8^+ T cells [6]): up-regulated | expression and nuclear localization of TFEB (CD8^+ T cells [6]; results not shown): significantly up-regulated | therapeutic effect of an anti-PD-1 antibody (tumor size, survival rate) (MC38 colon cancer [7]): enhance | therapeutic effect of an anti-PD-1 antibody (tumor size, survival rate) (4T1 breast cancer [8]): enhance | level of extracellular lactic acid (CD8^+ T cells [9]): reduced | uptake of exogenous lactic acid by CD8^+ T cells (CD8^+ T cells [9]): did not affect | lactic acid in mitochondria (CD8^+ T cells [9]; 2D-lactic acid tracing, 2 hours after treating with LC): highly accumulated | elevation in lactic acid levels in activated CD8^+ T cells caused by exogenous lactic acid (CD8^+ T cells [9]; 13C-lactic acid tracing): counteracted | mitochondrial m+3 lactic acid, nuclear m+3 lactic acid and lactyl-CoA (CD8^+ T cells [9]; 13C-lactic acid tracing, after 24 hours): almost undetectable | oxidation products of lactic acid (m+2 citric acid, m+4 malic acid) (CD8^+ T cells [9]; after 24 hours): more oxidation products of lactic acid were detected | levels of intracellular lactic acid and histone Kla (CD8^+ T cells [9]; after 24 hours, versus control group): significantly lower
